Source: patent US7304073B2, “Method of treating myocardial ischemia-reperfusion injury using NF-kB inhibitors” (Wyeth, priority 2004, dated 2007)
“Also recorded” adds a separate entry of the source.

What was measured:
[1] = system: myocardial ischemia-reperfusion models; settings: cited from earlier work
[2] = system: uterus or breast; assay: Activity in the uterus or breast; settings: in contrast to the known effects of 17β-estradiol
[3] = system: perfused isolated male rat hearts; assay: Isolated rat heart ischemia-reperfusion (Langendorff perfusion)
Experimental: Male rats 3 months old were anesthetized with sodium-pentobarbital and hearts were removed and mounted on a Langendorff apparatus. In this paradigm isolated hearts were perfused through an aortic cannula with a modified Krebs-Henseleit buffer equilibrated with 95% O2 and 5% CO2 at a constant pressure of 58 mmHg. Hearts were maintained at 37° C. throughout the experiments and temperature was continuously monitored with an IT-18 thermocouple microprobe inserted into the left ventricle (PhysiTemp, Clifton, N.J.). Flow rate was monitored with a flow probe and small animal flow meter (T206) from Transonic Systems Incorporated, Ithaca, N.Y. Hearts were perfused for 5 minutes with no additions followed by perfusion with vehicle or test compound which were continuously perfused throughout the remaining steps of the experiments. After 20 minutes the hearts were exposed to 100 nM isoproterenol for 5 minutes followed by 15 minutes global ischemia which was achieved by turning off the perfusion pump. After ischemia, hearts were reperfused at a constant flow rate for 50 minutes. This flow rate was equivalent to the rate used before ischemia to maintain 58 mmHg.
To assess ischemic damage, the change in left ventricular diastolic pressure was continually monitored using a fluid filled latex balloon inserted into the left ventricle through the left atrium. The diastolic pressure was initially adjusted to 5 mmHg. The pressure signals were recorded with a Grass Polygraph.
The release of creatine kinase (CK) enzyme activity from the hearts was also measured as a marker of cardiac damage. Fractions of perfusate were collected before ischemia and every 5 minutes during reperfusion. CK enzyme activity released from the hearts was determined in the perfusate fractions using CK reagent as recommended by the supplier (Sigma Diagnostics, St. Louis, Mo.).

[4] = system: Ovariectomized female New Zealand White rabbits; assay: In vivo rabbit heart ischemia-reperfusion (left anterior descending coronary artery occlusion), infarct size
Experimental: Ovariectomized female New Zealand White rabbits were anesthetized with a mixture of xylazine (3 mg/kg) and ketamine (35 mg/kg) administered IM, followed by an IV injection of sodium pentobarbital (15 mg/kg). An endotracheal tube was inserted and animals were positive pressure ventilated with room air. A Millar catheter micro-tip pressure transducer was inserted through the left carotid artery and positioned above the aortic valves to monitor aortic blood pressure. A lead II electrocardiogram was monitored throughout the experiment. A left thoracotomy and pericardiotomy were performed. […] A silk suture was passed behind the left anterior descending coronary artery and secured against polyethylene tubing for 30 minutes (ischemic period). Regional myocardial ischemia was verified by cyanosis in the region of the occluded vessel and by ST-segment elevation like changes in the electrocardiogram. The hearts were then reperfused for 4 hours.
To determine infarct size the heart was removed, cannulated through the aorta and perfused with Krebs-Henseleit buffer followed by perfilsion with 1% triphenyltetrazolium chloride (TTC). The left anterior descending coronary artery was re-occluded with a suture and 0.25% Evans Blue was perfused through the heart. The heart was cut into transverse sections and the area of the left ventricle, area at risk and the infarct area were traced and analyzed using Adobe PhotoShop Software. The infarct size is expressed as a percentage of the area at risk.

[5] = system: Adult ovariectomized female Sprague Dawley rats; assay: In vivo rat heart ischemia-reperfusion (left coronary artery occlusion), infarct size
Experimental: A rat in vivo model was used to evaluate effects of experimental compounds on ischemia-reperfusion in the left ventricle. Adult ovariectomized female Sprague Dawley rats (>6 weeks) were used. All experimental procedures were performed under general anesthesia with a combination of ketamine and xylazine. Rats were placed on a heating pad and ventilated using a rodent ventilator. The chest was clipped free of hair, disinfected with Betadine and rinsed with alcohol. A small incision was made through skin and underlying muscles between 4th and 5th ribs in the left chest. The ribs were gently spread and the heart was exposed. A surgical suture was placed under the left coronary artery. The artery was occluded by tightening the suture for 30 minutes to induce myocardial ischemia and then re-opened for the 2 hour reperfusion period. […] At the end of reperfusion, hearts were harvested, perfused with Evans Blue, sectioned and stained with 2,3,5-triphenyltetrazolium chloride. Each section was digitally imaged. Infarct size and area at risk were measured and statistically analyzed.

[6] = 1 uM, isolated rat heart, following ischemia-reperfusion

Row | SMILES | protection in similar myocardial ischemia-reperfusion models [1] | activity in the uterus or breast [2] | effect on increase in left ventricular diastolic pressure in comparison to vehicle [3, 6] | effect on left ventricular developed pressure in comparison to vehicle [3, 6] | release of creatine kinase (CK) activity from hearts following ischemia ([3]; 1 uM, perfusate during reperfusion phase, versus vehicle) | increase in left ventricular diastolic pressure after ischemia-reperfusion ([3]; luM of compound, 15 minutes global ischemia, 50 minutes reperfusion, vehicle 29 mmHg) [mmHg] | size of the area at risk relative to the area of the left ventricle ([4]; 1 mg/kg IV 30 minutes before induction of ischemia) | effect on infarct size in comparison to vehicle ([4]; 1 mg/kg IV 30 minutes before induction of ischemia, rabbit) | infarct size (ischemic area relative to the area at risk) ([4]; 1 mg/kg IV 30 minutes before ischemia, 30 minutes ischemia, 4 hours reperfusion, vehicle 59%) [%] | infarct size ([5]; 1 mg/kg iv 5 minutes before reperfusion, 30 minutes ischemia, 2 hour reperfusion, Mean±SEM, vehicle 54.6±3.2% / 54.4±4.7%) [%] | effect on ischemia/reperfusion-induced myocardial infarction compared with vehicle ([5]; 1 mg/kg iv, ovariectomized female rats) | melting point [°C]
1 | C[C@]12CC[C@@H]3c4ccc(O)cc4CC[C@H]3[C@@H]1CC[C@@H]2O [17β-estradiol] | protective | – | – | – | – | – | – | – | – | – | – | –
2 | CC1c2cc(F)ccc2-c2ccccc2N1S(=O)(=O)c1ccc(O)cc1 (stereo not shown) [Example 3, 4-[(8-Fluoro-6-methylphenanthridin-5(6H)-yl)sulfonyl]phenol] | – | no activity | significantly attenuated; also recorded: cardioprotective activity | significantly attenuated; also recorded: cardioprotective activity | significantly reduced; also recorded: significant decreases; also recorded: cardioprotective activity | 11 | did not have an effect | significantly reduced infarct size; also recorded: cardioprotective activity | 39 | 32.6±5.2 | significantly less myocardial infarction; also recorded: cardioprotective activity | 188
3 | COc1cc(OC)cc(N2CCN(C(=O)[C@](C)(C#N)[C@H](c3ccccc3OC)c3cccc4ccccc34)CC2)c1 [Example 4, (S)-3-[4-(3,5-dimethoxyphenyl)piperazin-1-yl]-2-[(S)-(2-methoxyphenyl)(1-naphthyl)methyl]-2-methyl-3-oxopropanenitrile] | – | – | – | – | – | – | – | – | – | – | – | 186 to 188
